The values below come from patent publication US12527773B2, “Flavi-block: a pan-flavivirus inhibitor” (Baden-Württemberg Stiftung GmbH, priority 2020, dated 2026).

In general, IC50 refers to the midpoint of a concentration-inhibition curve. A lower IC50 goes with greater potency. As usually defined, the EC50 is the concentration that produces a half-maximal response.

In one experiment the test system is HCV. Description: IC50 in established virological assays (Table 1), HCV. The class given is cell-based, Hepatitis C virus. Here is the method:
(§1) In summary, a set of C10 derivatives (FIG. 12) was designed, synthesized and tested against HCV (which is considered as an established system to monitor drug effects against Flaviviridae) as well as DENV for comprehensive structure-activity relationship (SAR) analysis and target validation. IC50 and CC50 values for compound C10 were determined in established virological assays (Table 1). […] Further, said experiments underline the specificity of compound C10 for flaviviruses.

A further experiment relates to RSV. Description: RT-qPCR analysis of virus genomes, RSV. Conditions: human respiratory syncytial virus, c.t., read-out: EC50 from RT-qPCR analysis. The format is cell-based. The source says: (§2) Viral RNA was extracted using Isolate II RNA extraction kit (Bioline), and the absolute number of RNA copies determined by Taqman One Step RT-qPCR (Applied Biosystems) by extrapolation from a standard curve generated from in vitro—transcribed virus RNA.
(§3) It was decided to test the ability of C10 to inhibit the flaviviruses DENV1-4, KUNV and ZIKV, in addition to the paramyxovirus RSV, as a control.
For orientation: Real-time PCR tracks product formation cycle by cycle.

The next experiment has as its system ZIKA. Description: IC50 in established virological assays (Table 1), ZIKA. To be noted: Zika virus. The format is cell-based.
The subject of the next experiment is HBV. Description: IC50 in established virological assays (Table 1), HBV. The format is cell-based, Hepatits B Virus. On the procedure: as §1
For a further experiment, the system named is DENV2. Nature of the experiment: RT-qPCR analysis of virus genomes, DENV2. The format is cell-based. Conditions: Dengue virus. On the procedure:
Vero cells were infected with DENV1-4 at an MOI of 1 for 2 h (post infection, p.i., (A)), after which virus was removed, and fresh maintenance medium containing 2% FCS together with the indicated concentration of C10 added. For co-treat condition (c.t., (B)), Vero cells were infected with DENV1-4 at an MOI of 1 in the presence of C10 for 2 h, followed by removal of the virus/C10 inoculums, and addition of fresh 2% fetal calf serum maintenance medium. […] Results represent the mean ±SD for duplicate wells from a single assay, representative of 2 independent experiments (cf. Tables 2A and 2B, infra, for pooled data).
as §2, §3

Where two headings read alike, the source gives them in different places.

Turning to `CCN1/C(=C\C=C\c2sc3cc(NC(C)=O)ccc3[n+]2CC)Sc2cc(NC(C)=O)ccc21.[I-]` [C10, 6-acetamido-2-((1E,3E)-3-(6-acetamido-3-ethylbenzo[d]thiazol-2(3H)-ylidene)prop-1-en-1-yl)-3-ethylbenzo[d]thiazol-3-ium iodide], the IC50 with HCV was 180 nM; in the experiment with HCV (Hepatitis C virus), roughly 200 nM; in the experiment on ZIKA, 100 to 200 nM; in the experiment on HBV (Hepatitis B virus, HBV) it was greater than 10000 nM. Also, the EC50 with RSV was 830 ± 970 nM; with DENV2 (DENV2, read-out: EC50 from RT-qPCR analysis, DENV2, c.t.) it was 200 nM; in the experiment with DENV2 (DENV2, read-out: EC50 from RT-qPCR analysis, DENV2, p.i.) it was 810 ± 480 nM. The “activity against Hepatits B Virus (HBV)” value with HBV is “inactive or has only minor activity”.
